In patent US7414173B1, “Isolated nucleic acid molecules encoding orally active androctonus amoreuxi pesticidal biopeptides” (E.I. du Pont de Nemours and Company, priority 2002, dated 2008):

B1: Ts7: polypeptide set forth in SEQ ID NO:22 and 24, identified from a Centruroides vittatus telsons cDNA library (protein)
chain 1: MKFFLIVSLAIMSCFMEMKEVYAGTKGNFPVDFQGIFYECIVYNRCERDCKLHGSSYGYCYAGVCYCEGLADEDKYFLGM
chain 2: GTKGNFPVDFQGIFYECIVYNRCERDCKLHGSSYGYCYAGVCYCEGLADEDKYFLGM

Experiments:
[1] = system: corn plant hopper Perigrinus maidis; experiment: Screening of Androctonus amoreuxi venom fractions for Homopteran activity; format: in vivo; conditions: HPLC fractions of venom
Protocol: This assay can be used for a variety of homopterans including, but not limited to, Myzus persicae and Perigrinus maidis. The assay involves trapping the sample between two layers of maximally stretched parafilm which act as a sachet on top of a small vessel containing the insect of choice.
The assay was prepared as follows: 1 cm diameter polystyrene tubing was cut into 15 mm lengths. One end of the tube was then capped with a fine mesh screen. Five insects were then added to the chamber after which the first layer of parafilm was stretched over the remaining open end. 25 μl of sample (polypeptide in a 5% sucrose solution containing McCormick green food coloring) was then placed on top of the stretched parafilm. A second layer of parafilm was then stretched by hand and placed over the sample. […] The assay tubes were monitored for insect reproduction and death on a 24 hour basis and compared to a 5% sucrose control.
Initial screening of five minute fractions of the venom from Androctonus amoreuxi indicated activity against the corn plant hopper Perigrinus maidis. […] Sufficient quantities of this purified protein were collected to allow confirmation of activity and to initiate protein sequencing by Edmund degradation as described in Example 2. The mature sequence was determined to be that indicated in SEQ ID NO:20. […]

[2] = system: embryonic neuronal cultures of the American cockroach Periplaneta americana; experiment: Fluorescence imaging ratiometric assay; format: cell-based; conditions: Fluo-4 AM loaded neuronal cells
Description: Embryonic neuronal cultures of the American cockroach Periplaneta americana were established following the method of Beadle and Lees (See Beadle D. J. and Lees G., Chapter 5 in Cell Culture Approaches to Invertebrate Neuroscience, Beadle, D. J., Lees, G. and Kater, S. B. (eds.) Academic Press, New York 1988) with minor modification. Briefly, 24-day old oothecae were collected, surface-sterilized and cut open one third below the dorsal midline. The heads were then removed and placed in Schneider's Drosophila medium. Using fine forceps 32 brains were individually removed and placed in a small glass vial containing 790 μl of ‘5+4’ medium. […]
Cells were rinsed in standard physiological saline having the following composition (mM): NaCl 190; CaCl2 9; KCl 3.1; probenicid 1; Tris buffer 10; pH 7.2. […] Individual wells from the 96-well plate were sequentially excited with light at 495 nm and the emitted fluorescence at 530 nm detected using a Hamamatsu ORCA ER digital camera.
Acquisition control, image processing and image analysis were conducted using Universal Imaging Corporation's MetaMorph™ imaging software. […] Individual cells were separated and identified based on meeting designated morphometric criteria for total size and shape as previously determined experimentally for this cell type. […]

[3] = system: Myzus persicae (Green Peach Aphid); experiment: Aphid bioassay on transgenic Arabidopsis thaliana events; format: in vivo; conditions: 35S promoter, versus controls
Description: cDNAs encoding potential sodium channel neurotoxins were identified from sequence data derived from a cDNA library of Centruroides vittatus telsons. […] Full length genes were PCR amplified with oligonucleotide primers introducing restriction enzyme sites at the 5′ and 3′ ends of the gene. The PCR products were TOPO-cloned into pCR2.1 (Invitrogen Co.) and the sequence was confirmed. The resulting constructs were then cloned into a binary vector between the Cauliflower mosaic virus 35S promoter and the NOS termination signal. The binary vector also contained a selection marker cassette including the Cauliflower mosaic 35S promoter, the BAR gene, and NOS terminator.
Binary constructs were electroporated into Agrobacterium tumefaciens strain C58. Transformed Agrobacterium cultures were grown in YM media for 2 days at 28° C. to an OD600 of approximately 1.0. Cells were pelleted by centrifugation and resuspended at the original culture volume in 5% sucrose with 0.05% Silwet L-77. The Agrobacterium slurry was sprinkled onto the inflorescences of flowering Arabidopsis thaliana (Landberg) plants using a 10-25 ml pipette. […]
Bioassays were performed on individual transformation events enclosed within plastic tubes with a fine mesh screen at the top to confine the aphids. […] Plants were scored for total number of adult aphids and nymphs at various intervals post infestation.

Molecule	activity against the corn plant hopper Perigrinus maidis (Homopteran activity) [1]	changes in Fluo-4 fluorescence (intracellular free calcium) [2]	aphid resistance (total number of adult aphids and nymphs) [3]
Aam1 (ADVPGNYPLDSSDNTYLCAPLGDNPDCIKICQKHGVDYGYCYAFQCWCEFLKDENVKV)	Homopteran activity was then found to be associated	changes in fluorescence characteristic of a sodium channel agonist	
B1			greater degree of aphid resistance than controls
